Laboratory results: paper PMC4721062, “Oxadiazole-2-oxides may have other functional targets, in addition to SjTGR, through which they cause mortality in Schistosoma japonicum” (Parasites & Vectors, 2016)
Read-outs that look alike come from different tables or passages of the source.

How the values were obtained:
juvenile S. japonicum = test: microbe, parasite or virus in culture; format: cell-based; conditions: for mortality at 50 µM / killing at 2 µM / killing at 5 µM / killing at 50 µM: Schistosoma japonicum; for mortality at 50 µM: read-out: Mortality of juvenile worms; for killing at 2 µM / killing at 5 µM / killing at 50 µM / Killing activity 24hr / Killing activity 48hr / Killing activity 72hr: juvenile worms; for Killing activity 24hr / Killing activity 48hr / Killing activity 72hr: 10 μM
Procedure: Infected Oncomelania hupensis, provided by the Department of Snail Biology, Jiangsu Institute of Parasitic Diseases, were incubated at 25–28 °C, under illumination, for 2 h to hatch S. japonicum cercariae. The cercariae were collected from the water surface with clean cover glass and placed into a centrifuge tube using pre cooled RPMI 1640. Centrifugation was performed for 1 min at 1500 rpm, and then the steps above were repeated. After centrifugation, the supernatant solution was removed. The cercariae at the bottom were washed twice and resuspended with RPMI 1640. Approximately 20–30 cercariae (1 mL of the resuspension medium) were added to one well in a 24-well culture plate. They were incubated overnight at 37 °C with 5 % CO2. The survival rates and number of tails shed were observed under an inverted microscope. Cercariae that had shed their tails were used as juvenile S. japonicum.
20–30 juvenile worms were transferred into each well of a 24-well culture plate, containing 2 mL RPMI 1640 medium, 20 mM HEPES, 100 IU/mL penicillin, […] streptomycin and 10 % fetal bovine serum. Then, oxadiazole-2-oxides (2, 5, 10, and 50 μM), diluted with the RPMI 1640 medium, were added to their allocated wells. The worms in the negative control wells were treated with equal volumes of RPMI 1640 or DMSO and worms treated with AS were observed as positive controls. The juvenile worms’ survival rates were observed under an inverted phase contrast microscope (Leica, Wetzlar, Germany) at 24, 48 and 72 h. Parasite death was defined as an unclear internal structure of the juvenile worms, with incomplete tegument and contents overflowing radially, or unclear internal structure with complete tegument, but having no motor activity during 1 min of continuous observation. All assays were repeated three times.
^b Data collected by visual examination of worm movement and shape; % D = The number of worms dead / The total number of worms observed, and worms dead judged by unclear internal structure of juvenile worms with uncompleted tegument, and contents overflowing radially, or unclear internal structure with complete tegument, but having no motor activity during 1 min of continuous observation. The data presented are the average of three independent experiments.

adult S. japonicum = test: microbe, parasite or virus in culture; format: cell-based
Source text: ICR mice (20–22 g), were obtained from the Shanghai Sub-Center of Experimental Animals, Chinese Academy of Sciences. They were maintained at the Department of Experimental Animals, Jiangsu Institute of Parasitic Diseases. To infect each mouse, its abdominal skin was exposed to 50 S. japonica cercariae. All of the mice were executed to collect S. japonica adult worms, through portal vein perfusion, 35 days post-infection. The adult S. japonica collected were washed with RPMI 1640 medium and then kept in RPMI 1640 medium (pH 7.5) with HEPES 20 mM, penicillin (100 IU/mL), streptomycin ([…]) and 10 % fetal bovine serum. Then, two pairs of adult worms were transferred into each well of a 24-well culture plate, with 2 mL of the same medium. The worms were cultured at 37 °C in a humid atmosphere with 5 % CO2.
Adult worms were cultured in a 24-well culture plate for 30–60 min at 37 °C, in a humid atmosphere with 5 % CO2. Then, oxadiazole-2-oxides at different concentrations (10, 25, 50, 100 μM) were added. Equal volumes of RPMI 1640 or DMSO were applied as negative controls, while PZQ was applied as a positive control. The adult worm mobility and parasite survival rates were monitored using an inverted phase contrast microscope, at 24, 48 and 72 h. Parasite death was defined as there being no motor activity during 2 min of continuous observation, and morphological and tegumental alterations. All assays were repeated three times.
^b Data collected by visual examination of worm movement and shape; n.e. […] The data presented are the average of three independent experiments.

recombinant SjTGR = target: T1, recombinant SjTGR (Schistosoma japonicum, UniProt B5THG7); test: Inhibition of TrxR activity of recombinant SjTGR (DTNB assay); format: biochemical; conditions: 50 nM SjTGR, 1 mM NADPH, 15 min preincubation, DTNB reduction; for IC50: read-out: IC50 of SjTGR
T1 sequence (B5THG7 1-596): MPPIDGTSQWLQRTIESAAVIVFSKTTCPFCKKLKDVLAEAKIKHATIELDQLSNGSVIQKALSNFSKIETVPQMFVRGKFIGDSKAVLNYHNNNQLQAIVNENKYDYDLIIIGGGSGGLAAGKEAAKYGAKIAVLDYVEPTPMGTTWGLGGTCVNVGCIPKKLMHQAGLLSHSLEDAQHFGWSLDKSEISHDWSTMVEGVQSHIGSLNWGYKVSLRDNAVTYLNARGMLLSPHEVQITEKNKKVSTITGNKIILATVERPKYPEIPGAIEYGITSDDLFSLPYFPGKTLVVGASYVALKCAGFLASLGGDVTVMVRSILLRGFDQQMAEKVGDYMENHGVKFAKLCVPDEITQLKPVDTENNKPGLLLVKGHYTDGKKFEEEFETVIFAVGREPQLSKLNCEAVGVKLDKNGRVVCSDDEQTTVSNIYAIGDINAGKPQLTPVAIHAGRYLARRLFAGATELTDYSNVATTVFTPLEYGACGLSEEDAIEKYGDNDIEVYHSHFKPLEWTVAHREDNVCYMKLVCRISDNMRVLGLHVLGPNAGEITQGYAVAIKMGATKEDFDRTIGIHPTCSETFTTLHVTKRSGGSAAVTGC
Procedure: The purified recombinant SjTGR proteins were produced according to the method described by Song et al.. The inhibition of TrxR activity by the recombinant SjTGR was performed as reported by Rai et al.. Briefly, 50 nM SjTGR and 1 mM NADPH were incubated with different concentrations of oxadiazole-2-oxides (2, 4, 6, 10, 20 μM) for 15 min at room temperature. Then, potassium phosphate buffer (pH 7.4) containing 10 mM EDTA, 100 μM NADPH, and 3 mM DTNB was added to start the reaction. The increase of absorbance at 412 nm was monitored during the first 2 min. All assays were done in triplicate.
50 nM SjTGR and 1 mM NADPH were incubated with different concentrations of oxadiazole-2-oxides (2, 4, 6, 10, 20 μM) for 15 min at room temperature. Then, potassium phosphate buffer (pH 7.4) containing 10 mM EDTA, 100 μM NADPH, 3 mM DTNB was added to start the reaction. The increase in absorbance at 412 nm was monitored during the first 2 min. All assays were done in triplicate. Results shown are the mean ± SD (n = 3)

[1] = 24 h, read-out: Killing activity 24hr
[2] = 48 h, read-out: Killing activity 48hr
[3] = 72 h, read-out: Killing activity 72hr
[4] = Schistosoma japonicum, adult worms, 100 μM, 24 h, read-out: Killing activity 24hr
[5] = Schistosoma japonicum, adult worms, 100 μM, 48 h, read-out: Killing activity 48hr
[6] = Schistosoma japonicum, adult worms, 100 μM, 72 h, read-out: Killing activity 72hr
[7] = Schistosoma japonicum, adult worms, 25 μM, 72 h, read-out: Killing activity 72hr
[8] = Schistosoma japonicum, adult worms, 50 μM, 48 h, read-out: Killing activity 48hr
[9] = Schistosoma japonicum, adult worms, 50 μM, 72 h, read-out: Killing activity 72hr

SMILES | mortality at 50 µM (juvenile S. japonicum; 24 h) | killing at 2 µM (juvenile S. japonicum; [1]) | killing at 2 µM (juvenile S. japonicum; [2]) | killing at 2 µM (juvenile S. japonicum; [3]) | killing at 5 µM (juvenile S. japonicum; [1]) | killing at 5 µM (juvenile S. japonicum; [2]) | killing at 5 µM (juvenile S. japonicum; [3]) | killing at 50 µM (juvenile S. japonicum; [1]) | killing at 50 µM (juvenile S. japonicum; [2]) | killing at 50 µM (juvenile S. japonicum; [3]) | Killing activity 24hr (juvenile S. japonicum; 24 h) | Killing activity 48hr (juvenile S. japonicum; 48 h) | Killing activity 72hr (juvenile S. japonicum; 72 h) | killing at 100 µM (adult S. japonicum; [4]) | killing at 100 µM (adult S. japonicum; [5]) | killing at 100 µM (adult S. japonicum; [6]) | Killing activity 24hr (adult S. japonicum; adult worms, 10 μM, 24 h) | Killing activity 48hr (adult S. japonicum; adult worms, 10 μM, 48 h) | Killing activity 72hr (adult S. japonicum; adult worms, 10 μM, 72 h) | IC50 (recombinant SjTGR) | also measured
[O-][n+]1onc(-c2ccc(Br)cc2)c1CO [Compound 4c] | < 30% | 15% | 20% | 20% | 24.5% | 24.5% | 26.4% | 25.8% | 25.8% | 51.6% | 7.1%D | 14.3%D | 17.9%D | 57.1% | 71.4% | 71.4% | n.e. | n.e. | n.e. | 8.6 µM | mortality at 100 µM (adult S. japonicum; Schistosoma japonicum, read-out: Mortality of adult worms): 57.1 ± 2.3%; Killing activity 24hr (adult S. japonicum; adult worms, 25 μM, 24 h): n.e.; Killing activity 48hr (adult S. japonicum; adult worms, 25 μM, 48 h): n.e.; Killing activity 72hr (adult S. japonicum; adult worms, 25 μM, 72 h): n.e.; Killing activity 24hr (adult S. japonicum; adult worms, 50 μM, 24 h): n.e.; Killing activity 48hr (adult S. japonicum; adult worms, 50 μM, 48 h): n.e.; Killing activity 72hr (adult S. japonicum; adult worms, 50 μM, 72 h): n.e.
N#Cc1c(-c2ccc(OCCCCBr)cc2)no[n+]1[O-] [Compound 14] |  | 21.6% | 31.1% | 35.1% | 26.4% | 33.3% | 38.9% | 46.4% | 66.4% | 80% | 30.4%D | 69.6%D | 69.6%D | 100% | 100% | 100% | 33.3%D | 44.4%D | 77.8%D | 15.5 µM | mortality at 25 µM (adult S. japonicum; Schistosoma japonicum, 24 h, read-out: Mortality of adult worms): > 75%; killing at 25 µM (adult S. japonicum; Schistosoma japonicum, adult worms, 25 μM, 24 h, read-out: Killing activity 24hr): 75%; killing at 25 µM (adult S. japonicum; Schistosoma japonicum, adult worms, 25 μM, 48 h, read-out: Killing activity 48hr): 87.5%; killing at 25 µM (adult S. japonicum; [7]): 100%; killing at 50 µM (adult S. japonicum; Schistosoma japonicum, adult worms, 50 μM, 24 h, read-out: Killing activity 24hr): 100%; killing at 50 µM (adult S. japonicum; [8]): 100%; killing at 50 µM (adult S. japonicum; [9]): 100%
N#Cc1c(-c2ccc(OCC(=O)c3ccccc3)cc2)no[n+]1[O-] [Compound 17] | < 30% | 28.1% | 37.5% | 46.9% | 29.2% | 41.7% | 50% | 45.8% | 60.4% | 72.9% | 40.0%D | 48.6%D | 54.3%D |  | 57.1% | 85.7% | n.e. | n.e. | 50.0%D | > 20 µM | killing at 25 µM (adult S. japonicum; [7]): 62.5%; killing at 50 µM (adult S. japonicum; [8]): 40%; killing at 50 µM (adult S. japonicum; [9]): 87.5%; Killing activity 24hr (adult S. japonicum; adult worms, 25 μM, 24 h): n.e.; Killing activity 48hr (adult S. japonicum; adult worms, 25 μM, 48 h): n.e.; Killing activity 24hr (adult S. japonicum; adult worms, 50 μM, 24 h): n.e.; Killing activity 24hr (adult S. japonicum; adult worms, 100 μM, 24 h): sluggish; Mortality of adult worms (adult S. japonicum; adult worms, 100 μM, 24 h): did not cause death; IC50 of SjTGR (recombinant SjTGR): did not inhibit
